Assay [1] concerns the target Acetylcholinesterase (Torpedo californica) (UniProt P04058). In words: Compound was evaluated for non-competitive inhibition constant of acetylcholinesterase (AChE) from Torpedo californica. To be noted: Tetronarce californica.
For assay [2], the target named is T1, Acetylcholinesterase (Torpedo californica, UniProt P04058). In words: Compound was evaluated for competitive inhibition constant of acetylcholinesterase (AChE) from Torpedo californica. Further details: species or system Tetronarce californica.
T1 sequence (P04058 whole entry): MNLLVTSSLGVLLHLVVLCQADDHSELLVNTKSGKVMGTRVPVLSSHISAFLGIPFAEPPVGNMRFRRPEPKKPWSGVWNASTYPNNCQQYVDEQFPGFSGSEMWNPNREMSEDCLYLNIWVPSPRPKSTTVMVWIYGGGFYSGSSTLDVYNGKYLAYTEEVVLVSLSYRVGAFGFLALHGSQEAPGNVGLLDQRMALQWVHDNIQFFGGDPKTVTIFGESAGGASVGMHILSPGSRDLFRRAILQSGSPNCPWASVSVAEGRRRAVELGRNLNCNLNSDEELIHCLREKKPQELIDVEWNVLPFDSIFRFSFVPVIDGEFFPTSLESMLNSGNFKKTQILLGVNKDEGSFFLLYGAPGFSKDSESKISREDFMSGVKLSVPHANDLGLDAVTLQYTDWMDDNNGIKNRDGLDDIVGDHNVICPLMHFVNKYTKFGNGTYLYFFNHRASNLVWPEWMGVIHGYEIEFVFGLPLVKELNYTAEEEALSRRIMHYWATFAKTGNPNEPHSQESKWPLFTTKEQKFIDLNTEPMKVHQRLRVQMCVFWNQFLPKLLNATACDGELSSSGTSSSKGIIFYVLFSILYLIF
Assay [3] concerns the target T2, Acetylcholinesterase (Electrophorus electricus, UniProt O42275).
Description: Compound was evaluated for the inhibition of acetylcholinesterase (AChE) in electric eel
The target of assay [4] is Acetylcholinesterase (Homo sapiens, UniProt P22303).
Chain of Acetylcholinesterase (Homo sapiens, UniProt P22303) (P22303 whole entry): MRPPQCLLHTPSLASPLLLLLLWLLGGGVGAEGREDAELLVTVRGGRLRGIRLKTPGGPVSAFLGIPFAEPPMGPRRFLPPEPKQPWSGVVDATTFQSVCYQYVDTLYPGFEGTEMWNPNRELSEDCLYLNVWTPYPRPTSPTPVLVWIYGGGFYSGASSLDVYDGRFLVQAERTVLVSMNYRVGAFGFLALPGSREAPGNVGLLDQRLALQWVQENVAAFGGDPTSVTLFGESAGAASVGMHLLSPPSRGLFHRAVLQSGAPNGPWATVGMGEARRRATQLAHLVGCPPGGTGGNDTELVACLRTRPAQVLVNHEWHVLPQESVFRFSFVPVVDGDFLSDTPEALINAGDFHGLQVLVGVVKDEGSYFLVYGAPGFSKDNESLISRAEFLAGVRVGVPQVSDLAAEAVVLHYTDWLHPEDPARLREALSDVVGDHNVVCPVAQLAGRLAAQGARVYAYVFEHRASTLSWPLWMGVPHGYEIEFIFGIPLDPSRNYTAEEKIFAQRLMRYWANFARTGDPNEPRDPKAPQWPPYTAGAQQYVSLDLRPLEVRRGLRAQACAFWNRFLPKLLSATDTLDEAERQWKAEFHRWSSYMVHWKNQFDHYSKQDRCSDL
Description: Compound was evaluated for the inhibition of acetylcholinesterase (AChE) in human erythrocytes
The target of assay [5] is T3, Acetylcholinesterase (Bos taurus, UniProt P23795).
T3 sequence (P23795 whole entry): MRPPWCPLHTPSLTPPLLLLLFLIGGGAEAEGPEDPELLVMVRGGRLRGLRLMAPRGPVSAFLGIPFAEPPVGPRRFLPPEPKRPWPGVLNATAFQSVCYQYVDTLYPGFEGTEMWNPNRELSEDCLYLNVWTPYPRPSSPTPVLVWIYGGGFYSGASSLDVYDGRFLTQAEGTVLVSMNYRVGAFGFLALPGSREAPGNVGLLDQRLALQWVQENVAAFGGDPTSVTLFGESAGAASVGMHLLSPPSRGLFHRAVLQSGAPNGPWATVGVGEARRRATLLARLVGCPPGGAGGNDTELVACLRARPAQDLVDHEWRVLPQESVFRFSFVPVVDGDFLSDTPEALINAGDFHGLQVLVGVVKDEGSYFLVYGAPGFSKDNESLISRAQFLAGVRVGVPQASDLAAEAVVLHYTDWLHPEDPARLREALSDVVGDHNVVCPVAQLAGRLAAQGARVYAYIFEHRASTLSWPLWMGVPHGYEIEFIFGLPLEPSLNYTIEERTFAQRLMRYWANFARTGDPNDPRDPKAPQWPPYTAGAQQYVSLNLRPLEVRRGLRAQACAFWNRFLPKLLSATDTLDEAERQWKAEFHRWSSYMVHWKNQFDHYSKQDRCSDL
Description: Compound was evaluated for the inhibition of acetylcholinesterase (AChE) in bovine brain

In assay [6] the target is T1, Acetylcholinesterase.
Description: Compound was evaluated for the inhibition of acetylcholinesterase (AChE) in Torpedo californica
Assay [7] deals with T3, Acetylcholinesterase. This is another data set of the same source.
Assay [8] deals with T3, Acetylcholinesterase. In words: Compound was evaluated for the inhibition of acetylcholinesterase (AChE) in bovine erythrocytes. In kind it is cell-based.
Assay [9] has as its target T1, Acetylcholinesterase. In words: Compound was evaluated for the inhibition of acetylcholinesterase in Torpedo californica. The arrangement: species or system Tetronarce californica.
In assay [10] the target is T2, Acetylcholinesterase. Description: Compound was evaluated for the inhibition of acetylcholinesterase in electric eel.

What is called Ki is a measure of affinity in units of concentration, obtained from inhibition or displacement. High values mean a looser hold on the target, low ones a stronger hold on the target. The term IC50 denotes the concentration needed to halve the response being measured.

Chain of Acetylcholinesterase (Torpedo californica) (P04058 22-564 limits assumed): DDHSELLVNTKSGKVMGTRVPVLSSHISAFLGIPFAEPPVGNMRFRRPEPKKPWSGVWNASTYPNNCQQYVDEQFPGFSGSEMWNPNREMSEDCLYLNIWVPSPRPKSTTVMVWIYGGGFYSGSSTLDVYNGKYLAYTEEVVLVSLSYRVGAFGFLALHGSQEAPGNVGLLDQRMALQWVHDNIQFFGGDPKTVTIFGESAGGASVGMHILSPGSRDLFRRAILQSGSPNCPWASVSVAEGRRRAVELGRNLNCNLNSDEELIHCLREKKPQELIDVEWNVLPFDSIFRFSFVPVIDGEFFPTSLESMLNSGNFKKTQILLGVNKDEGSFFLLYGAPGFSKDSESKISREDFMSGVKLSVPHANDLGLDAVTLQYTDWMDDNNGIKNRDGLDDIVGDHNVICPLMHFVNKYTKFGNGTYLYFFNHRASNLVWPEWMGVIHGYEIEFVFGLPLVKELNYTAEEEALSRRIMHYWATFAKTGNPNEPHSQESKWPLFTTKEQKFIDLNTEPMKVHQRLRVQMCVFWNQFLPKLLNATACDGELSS
T2 sequence (O42275 whole entry): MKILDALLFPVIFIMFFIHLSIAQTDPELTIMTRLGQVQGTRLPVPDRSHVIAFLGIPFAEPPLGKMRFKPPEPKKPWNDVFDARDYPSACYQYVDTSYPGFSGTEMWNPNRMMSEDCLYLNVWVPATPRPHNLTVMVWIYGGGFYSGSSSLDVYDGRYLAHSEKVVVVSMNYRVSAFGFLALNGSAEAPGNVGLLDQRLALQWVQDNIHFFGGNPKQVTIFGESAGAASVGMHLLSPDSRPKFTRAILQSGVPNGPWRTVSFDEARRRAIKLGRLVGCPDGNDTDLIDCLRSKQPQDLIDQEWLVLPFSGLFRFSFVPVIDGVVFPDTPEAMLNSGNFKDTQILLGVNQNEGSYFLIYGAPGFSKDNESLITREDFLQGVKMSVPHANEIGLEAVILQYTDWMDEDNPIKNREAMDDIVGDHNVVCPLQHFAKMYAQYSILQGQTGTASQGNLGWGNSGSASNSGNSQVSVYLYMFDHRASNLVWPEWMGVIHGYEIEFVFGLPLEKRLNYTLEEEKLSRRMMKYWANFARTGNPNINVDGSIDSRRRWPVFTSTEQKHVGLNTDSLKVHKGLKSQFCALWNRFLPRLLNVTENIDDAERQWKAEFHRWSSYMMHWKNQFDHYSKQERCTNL

For `CN(C)c1ccc(CC(=O)NCCCCCCCNC23CC4CC(CC(C4)C2)C3)cc1`, the KI' in assay [1] amounted to 13 µM. For the same compound, the Ki at Acetylcholinesterase [2] worked out at 7 µM.

Take `CN(C)c1ccc(CC(=O)NCCCCCCCCCCCCNC23CC4CC(CC(C4)C2)C3)cc1`: the IC50 was 8.9 µM at Acetylcholinesterase [3]; above 100 µM against Acetylcholinesterase [4]; 20 µM against Acetylcholinesterase [5]; 3.3 µM against Acetylcholinesterase [6]; 19 µM against Acetylcholinesterase [7]. Further, the KI' in [1] was determined as 4.1 µM. On Acetylcholinesterase [2], this compound gave a Ki of 1.8 µM.

For `CN(C)c1ccc(CC(=O)NCCCCCCCCNC23CC4CC(CC(C4)C2)C3)cc1`, the IC50 at Acetylcholinesterase [8] was above 100 µM; against Acetylcholinesterase [3], 28 µM; on Acetylcholinesterase [4], above 100 µM; against Acetylcholinesterase [5], above 100 µM; against Acetylcholinesterase [9], 10 µM. Further, the KI' in [1] stood at 10 µM. On Acetylcholinesterase [2], this compound returned a Ki of 5.5 µM.

As for `CN(C)c1ccc(CC(=O)NCCCCCCCCCNC23CC4CC(CC(C4)C2)C3)cc1`, the KI' in assay [1] was found to be 7 µM. In addition, at Acetylcholinesterase [2], the affinity, expressed as Ki, was 3.4 µM.

As to `CN(C)c1ccc(CC(=O)NCCCCCCCCCCNC23CC4CC(CC(C4)C2)C3)cc1`, the IC50 against Acetylcholinesterase [10] was 14 µM; at Acetylcholinesterase [4] it was above 100 µM; at Acetylcholinesterase [5] it was 77 µM; against Acetylcholinesterase [9], 5.3 µM; against Acetylcholinesterase [7] it was 95 µM. Also, the KI' in assay [1] worked out at 5.3 µM. The compound further showed a Ki on Acetylcholinesterase [2] of 2.5 µM.

For the compound `CN(C)c1ccc(CC(=O)NCCCCCCCCCCCNC23CC4CC(CC(C4)C2)C3)cc1`, the KI' in [1] is 5.2 µM. This compound had a Ki on Acetylcholinesterase [2] of 2.1 µM.

For the origin of these results see ChEMBL document CHEMBL1131645, “Synthesis and activity studies of N-[omega-N'-(adamant-1'-yl)aminoalkyl]- 2-(4'-dimethylaminophenyl)acetamides: in the search of selective inhibitors for the different molecular forms of acetylcholinesterase” (Bioorg Med Chem Lett, 1998).
